In one assay the test system is PRMT5–MEP50. Particulars: cited from earlier work; for IC50: read-out: Biochemical (nM), IC50.
A further assay has as its system MTAP del cell lines. More on the design: method as in ref 7,8 (a number printed in a supplementary file, which may have a reference list of its own: not looked up in the article's list). Particulars: 10 day viability, read-out: Proliferation (nM), IC50; cited from earlier work.
The next assay deals with PRMT5/MEP50. Details: method as in ref 7,8 (a number printed in a supplementary file, which may have a reference list of its own: not looked up in the article's list). Particulars: 20 μM SAM preincubation; read-out: SPR; cited from earlier work.
Assay [1] relates to SDMA in MTAP WT cells. More on the design: method as in ref 7,8 (a number printed in a supplementary file, which may have a reference list of its own: not looked up in the article's list). Particulars: read-out: In-Cell Western (nM), SDMA IC50; cited from earlier work.
Another assay deals with SDMA in MTAP del cells. Details: method as in ref 7,8 (a number printed in a supplementary file, which may have a reference list of its own: not looked up in the article's list). The settings on record: read-out: In-Cell Western (nM), SDMA IC50; cited from earlier work.
The next assay concerns MTAP WT cell lines. Details: method as in ref 7,8 (a number printed in a supplementary file, which may have a reference list of its own: not looked up in the article's list). Particulars: 10 day viability, read-out: Proliferation (nM), IC50; cited from earlier work.
Assay [2] deals with SDMA in MTAP WT cells. More on the design: method as in ref 9 (a number printed in a supplementary file, which may have a reference list of its own: not looked up in the article's list). The settings on record: read-out: In-Cell Western (nM), SDMA EC50; cited from earlier work.
Assay [3] deals with NLuc-PRMT5 co-expressed with WDR77 (Homo sapiens, UniProt O14744). The assay can be described thus: Compound EC50 titrations against MTA, NanoBRET in HEK293 (NLuc-PRMT5 + WDR77), with global Gaddum/Schild or Morrison fits. The settings on record: for Schild slope: Global Gaddum/Schild EC50 shift fit, MTA titration; for Right-shift in binding/potency on addition of MTA: HEK293, 300 µM exogenous MTA; for EC50 fold change (EC50 at 300 μM MTA versus vehicle): negative = enhanced potency under high MTA; for Hill slope (Global/Schild fit): constant across [MTA], constrained to 1 for PF06939999 and GSK3326595.
Method: MTA (Sigma) was prepared at 100× in 100% DMSO and diluted to 10× in Opti-MEM. Inhibitors were run as 11 pt, 3-fold dilution curves and MTA as a seven point, 3-fold dilution curve starting at 100 μM. Cells were incubated for 2 h at 37 °C and 5% CO2 prior to BRET measurements. Data was normalized using Eq. (2) where BRETMIN = saturating compound + maximum [MTA], and BRETMAX = BRET signal under vehicle conditions. Curves were fit using Eq. (3), and EC50 values were plotted against MTA concentration to determine the linear range of MTA detection.

Assay [4] deals with PRMT5. Details: method as in ref 5,6 (a number printed in a supplementary file, which may have a reference list of its own: not looked up in the article's list). The settings on record: single-cycle kinetic analysis; read-out: SPR (pM), Kd; cited from earlier work.
Assay [5] addresses NanoLuc-PRMT5 co-expressed with WDR77 (Homo sapiens, UniProt O14744). Briefly: Live-cell NanoBRET target engagement with BRET probe CBH-002 in HEK293 cells expressing NanoLuc-PRMT5 and unlabeled WDR77. More on the design: host or cells: HEK293. It is filed as cell-based. How it is done:
HEK293 cells (ATCC) were cultured in DMEM (Thermo Fisher) + 10% (v/v) FBS (Seredigm), and HCT116 cells (Horizon Discovery, #PAR-034 and #R02-033) were cultured in McCoy’s 5A (Thermo Fisher) + 10% FBS, with incubation in a humidified, 37 °C/5% CO2 incubator. Cells were split 1–3 days prior to performing experiments and used at roughly 80% confluency. […] Cells were transfected according to the manufacturer’s protocol using FuGENE HD (Promega). NanoLuc fusion DNA was diluted into Transfection Carrier DNA (Promega) in Opti-MEM at a ratio of 1:9 (mass/mass), and FuGENE HD was added at a ratio of 1:3 (μg DNA:μL lipid). […] Formed complexes were combined with cells resuspended to a density of 2 × 10^5 cells/mL in Opti-MEM + 1% FBS at a ratio of 1:20 (vol:vol). […] Cells were seeded at a density of 2 × 10^5 cells/mL in Opti-MEM + 1% FBS in 100 μL (96-well). The BRET probe CBH-002 was prepared first as a 100× stock in 100% DMSO (Sigma) and then diluted to a 20× stock in NanoBRET Tracer Dilution buffer (Promega). Test compounds were prepared as 1000× stocks in 100% DMSO and diluted to 10× stocks in Opti-MEM to prepare working stocks. […] NanoBRET Complete 3x Substrate was prepared by combining Nano-Glo Substrate and Extracellular NanoLuc Inhibitor in Opti-MEM, according to the manufacturer’s protocol (Promega).
BRET ratio values were calculated by dividing the acceptor by the donor signal, and raw BRET was converted to milli-BRET (mBRET) units (mBu) by multiplying by 1000.
EC50 values were obtained by fitting the BRET probe and compound affinity curves to a sigmoidal four-parameter fit model in Graphpad Prism:1 Y=Ymin+Ymax−Ymin/1+10^LogEC50−Xh where h is the Hill Slope.
When normalized BRET was used, mBRET values were normalized using2 NormalizedBRET%=(Y−BRETmin)/BRETmax−BRETmin where y = mBRET in the presence of test compound and BRET probe, BRETmin = mBRET at the highest concentration (saturating) of test compound and BRET probe, and BRETmax = mBRET in the presence of vehicle (DMSO) and BRET probe.
Normalized concentration-response curves showing full competition were fit using a 2-parameter model:3 Y=100/1+10^LogEC50−Xh
In situations where only partial competition was observed, the normalized concentration-response curves were fit using Eq. 1 and where Ymin was constrained to >0.

For a further assay, the system named is SDMA levels in A427. Details: method as in ref 5,6 (a number printed in a supplementary file, which may have a reference list of its own: not looked up in the article's list). Particulars: read-out: In-Cell Western (nM), IC50; cited from earlier work.
For assay [6], the system named is PRMT5. Particulars: 3H-SAM to peptide substrate; read-out: Biochemical (nM), IC50; cited from earlier work.
In the next assay the target is PRMT5:MEP50 complex. Details: method as in ref 4 (a number printed in a supplementary file, which may have a reference list of its own: not looked up in the article's list). Particulars: read-out: SPR (pM), Kd; cited from earlier work.
Assay [7] has as its system SmBB' dimethylation in MCF7 cells. More on the design: method as in ref 4 (a number printed in a supplementary file, which may have a reference list of its own: not looked up in the article's list). Particulars: read-out: In-Cell Western (nM), EC50; cited from earlier work.

The values that follow come from article PMC12675575, “A BRET biosensor for measuring uncompetitive engagement of PRMT5 complexes in cells” (Nature Communications, 2025).

Molecules are shown by their SMILES. pEC50, pKd: −log10 of the molar value. Values joined by “and” are separate entries in the source; they are usually repeats but may differ in a detail not shown here. Equal values may be shown once. Read-outs that look alike come from different tables or passages of the source.

NLuc-PRMT5 co-expressed with WDR77, sequence (O14744 whole entry): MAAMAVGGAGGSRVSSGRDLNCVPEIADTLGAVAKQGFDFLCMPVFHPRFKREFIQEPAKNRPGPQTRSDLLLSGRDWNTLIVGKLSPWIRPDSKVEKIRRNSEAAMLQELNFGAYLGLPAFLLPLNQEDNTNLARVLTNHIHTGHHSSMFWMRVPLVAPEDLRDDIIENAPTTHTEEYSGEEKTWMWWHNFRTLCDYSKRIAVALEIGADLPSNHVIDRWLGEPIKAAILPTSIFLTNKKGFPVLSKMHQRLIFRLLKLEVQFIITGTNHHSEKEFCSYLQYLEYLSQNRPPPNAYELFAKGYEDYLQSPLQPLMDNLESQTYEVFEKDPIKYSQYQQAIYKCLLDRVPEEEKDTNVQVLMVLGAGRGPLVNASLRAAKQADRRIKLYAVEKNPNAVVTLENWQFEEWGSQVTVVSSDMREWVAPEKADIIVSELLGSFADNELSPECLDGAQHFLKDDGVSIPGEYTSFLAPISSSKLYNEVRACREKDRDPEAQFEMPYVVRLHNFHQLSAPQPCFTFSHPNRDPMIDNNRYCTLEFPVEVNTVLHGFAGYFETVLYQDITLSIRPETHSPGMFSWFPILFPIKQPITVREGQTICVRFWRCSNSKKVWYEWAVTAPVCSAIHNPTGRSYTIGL
NLuc-PRMT5 co-expressed with WDR77, sequence (Q9BQA1 whole entry partner): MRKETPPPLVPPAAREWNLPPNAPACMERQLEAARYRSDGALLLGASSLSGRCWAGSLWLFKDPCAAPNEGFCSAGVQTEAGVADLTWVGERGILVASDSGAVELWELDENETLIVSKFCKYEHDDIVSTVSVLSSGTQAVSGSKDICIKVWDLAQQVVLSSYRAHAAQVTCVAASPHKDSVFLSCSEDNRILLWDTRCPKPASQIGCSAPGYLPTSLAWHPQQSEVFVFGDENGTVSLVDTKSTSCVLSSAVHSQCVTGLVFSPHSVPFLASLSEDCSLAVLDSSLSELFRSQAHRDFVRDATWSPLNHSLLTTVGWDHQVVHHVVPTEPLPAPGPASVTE
NanoLuc-PRMT5 co-expressed with WDR77, sequence (O14744 whole entry, the tested form may be a part): as the sequence (O14744 whole entry) above
NanoLuc-PRMT5 co-expressed with WDR77, sequence (Q9BQA1 whole entry partner, the tested form may be a part): as the sequence (Q9BQA1 whole entry partner) above

For `Cn1ncc(-c2ccc3c(=O)[nH]nc(CN)c3c2)c1-c1c(F)c(Cl)cc(OC2CC2)c1C#N` [MRTX1719], the IC50 is 3.6 nM in the assay with PRMT5–MEP50 (MTA); 20.4 nM in the assay with PRMT5–MEP50 (SAM); 12 nM in the assay with MTAP del cell lines; 653 nM in the assay on SDMA in MTAP WT cells [1]; 8 nM in the assay on SDMA in MTAP del cells; 890 nM in the assay on MTAP WT cell lines. Moreover, the “Enhancement of biochemical IC50 in the presence of MTA” value in the assay on PRMT5–MEP50 is given as 5 fold. Besides, on PRMT5/MEP50, the pKd was 11.03.

As to `Cc1cc(NC(=O)C(=O)N2CC(C)CCC2c2ccc3scnc3c2)cnc1N` (centres unmarked) [TNG908], the EC50 in the assay with SDMA in MTAP WT cells [2] was 135 nM.

Turning to `Nc1ncnc2c1ccn2C1OC(C(O)c2ccccc2)C(O)C1O` (centres unmarked) [PF-06939999], the Schild slope in assay [3] (HEK293) is 1.15 (0.88 - 1.51). Further, the “A2 (concentration of MTA needed to shift the dose response curve by a factor of 2)” value in assay [3] (Global/Schild fit, HEK293) was 172 (137 – 211) M. Also, the “Right-shift in binding/potency on addition of MTA” value in [3] was determined as 3 fold. Moreover, the “EC50 fold change (EC50 at 300 μM MTA versus vehicle)” value in assay [3] (HEK293) was 3 and 2.8. Further, the Hill slope is recorded as 0.97 in [3] ([MTA] 0 μM, HEK293); 0.99 in assay [3] ([MTA] 11.11 μM, HEK293); 0.79 in assay [3] ([MTA] 100 μM, HEK293); 0.76 in assay [3] ([MTA] 300 μM, HEK293). Also, the “Hill slope (Global/Schild fit)” value in assay [3] is given as 1. The Kd at PRMT5 [4] is 5.8 pM. For the same compound, the remaining activity at […] in assay [5] (HEK293, log([compound]), uM -0.48, vehicle = 100, read-out: Normalized BRET, Bio rep 1-3) amounted to 0.95%; in assay [5] (HEK293, log([compound]), uM -1.91, vehicle = 100, read-out: Normalized BRET, Bio rep 1-3), 11.6%. Also, the remaining activity at 0.1122 µM in assay [5] (HEK293, log([compound]), uM -0.95, vehicle = 100, read-out: Normalized BRET, Bio rep 1-3) is 2.4%. In addition, the remaining activity at 0.03715 µM in assay [5] (HEK293, log([compound]), uM -1.43, vehicle = 100, read-out: Normalized BRET, Bio rep 1-3) was 5.9%. Further, the remaining activity at 0.004074 µM in [5] (HEK293, log([compound]), uM -2.39, vehicle = 100, read-out: Normalized BRET, Bio rep 1-3) turned out to be 22.9%. For the same compound, the remaining activity at 0.00138 µM in assay [5] (HEK293, log([compound]), uM -2.86, vehicle = 100, read-out: Normalized BRET, Bio rep 1-3) was 51.1%. Moreover, the remaining activity at 0.0004571 µM in assay [5] (HEK293, log([compound]), uM -3.34, vehicle = 100, read-out: Normalized BRET, Bio rep 1-3) came out at 72.7%. In addition, in assay [5] (HEK293, log([compound]), uM -3.82, vehicle = 100, read-out: Normalized BRET, Bio rep 1-3), the remaining activity at 0.0001514 µM worked out at 89%. The remaining activity at 51.29 pM in assay [5] (HEK293, log([compound]), uM -4.29, vehicle = 100, read-out: Normalized BRET, Bio rep 1-3) came out at 98.4%. In [5] (HEK293, log([compound]), uM -4.77, vehicle = 100, read-out: Normalized BRET, Bio rep 1-3), the remaining activity at 16.98 pM was determined as 102%. In [5] (read-out: NanoBRET EC50 (95% CI), HEK293, competitive displacement of CBH-002, 2 h, n=3), the pEC50 was 8.77. Besides, the IC50 in the assay on SDMA levels in A427 was 1.1 nM.

Regarding `Nc1ncnc2c1ccn2[C@@H]1O[C@H]([C@H](O)c2ccccc2)[C@@H](O)[C@H]1O` [LLY-283], in [3] (EC50, [MTA] 0 μM, HEK293, 30 nM CBH-002), the pEC50 is 6.46. In addition, the EC50 is 365 nM in assay [3] (EC50, nM (MTA = 0), Global/Schild fit, HEK293); 467 nM in assay [5] (NanoBRET EC50 (95% CI, nM), HEK293, competitive displacement of CBH-002, 2 h, n=3); 25 nM in assay [7]. Besides, the Schild slope in assay [3] (HEK293) is reported as 1.1 (0.93 - 1.31). Further, in [3] (Global/Schild fit, HEK293), the “A2 (concentration of MTA needed to shift the dose response curve by a factor of 2)” value was 61 (46-79) M. Moreover, in assay [3], the “Right-shift in binding/potency on addition of MTA” value worked out at 6 fold. In [3] (HEK293), the “EC50 fold change (EC50 at 300 μM MTA versus vehicle)” value was 6 and 6.1. The Hill slope in assay [3] ([MTA] 0 μM, HEK293) was determined as 0.62; in assay [3] ([MTA] 11.11 μM, HEK293), 0.55; in assay [3] ([MTA] 100 μM, HEK293), 0.62; in assay [3] ([MTA] 300 μM, HEK293) it was 0.64. Besides, the “Hill slope (Global/Schild fit)” value in assay [3] is 0.55 (0.51 - 0.59). In addition, the IC50 in the assay with PRMT5 [6] is 22 nM. For the same compound, the Kd at PRMT5:MEP50 complex was 6000 pM. Moreover, the remaining activity at […] in assay [5] (HEK293, log([compound]), uM 0.0458, vehicle = 100, read-out: Normalized BRET, Bio rep 1-3) turned out to be 34%; in assay [5] (HEK293, log([compound]), uM 0.52, vehicle = 100, read-out: Normalized BRET, Bio rep 1-3), 24.1%; in [5] (HEK293, log([compound]), uM -0.91, vehicle = 100, read-out: Normalized BRET, Bio rep 1-3), 66.1%. Further, the remaining activity at 0.3715 µM in [5] (HEK293, log([compound]), uM -0.43, vehicle = 100, read-out: Normalized BRET, Bio rep 1-3) was found to be 53.7%. Further, the remaining activity at 0.04074 µM in assay [5] (HEK293, log([compound]), uM -1.39, vehicle = 100, read-out: Normalized BRET, Bio rep 1-3) was 81.4%. In addition, in [5] (HEK293, log([compound]), uM -1.86, vehicle = 100, read-out: Normalized BRET, Bio rep 1-3), the remaining activity at 0.0138 µM stood at 91.4%. The remaining activity at 0.004571 µM in [5] (HEK293, log([compound]), uM -2.34, vehicle = 100, read-out: Normalized BRET, Bio rep 1-3) is 97.7%. Further, in assay [5] (HEK293, log([compound]), uM -2.82, vehicle = 100, read-out: Normalized BRET, Bio rep 1-3), the remaining activity at 0.001514 µM amounted to 102%. For the same compound, the remaining activity at 0.0005129 µM in assay [5] (HEK293, log([compound]), uM -3.29, vehicle = 100, read-out: Normalized BRET, Bio rep 1-3) came out at 107%. The remaining activity at 0.0001698 µM in [5] (HEK293, log([compound]), uM -3.77, vehicle = 100, read-out: Normalized BRET, Bio rep 1-3) stood at 102%.
